# Source: PMC12489694, “Design, Synthesis, Antidiabetic Activity and In Silico Studies of New Hydrazone Derivatives Derived from Acetohexamide” (ACS Omega, 2025)
# Entries after “also recorded” stand apart in the source; their conditions may differ. Read-outs that look alike come from different tables or passages of the source.
# Legend:
# [1] = target: α-glucosidase; experiment: α-glucosidase inhibitory activity (p-nitrophenyl-α-D-glucopyranoside method); type: biochemical
# Description: After 20 min incubation at 37 °C, 90 μL Na2CO3 (100 mM) was added into the each well to stop the enzymatic reaction. Absorbance of the 96-well microplate reader was recorded at 400 nm. Antidiabetic inhibition activity data were taken in three parallel measurements for four concentrations of each synthesis sample. The results of the biological activity analyses are presented as IC50 values.
# [2] = tested on: HEK293 cells; experiment: MTT cytotoxicity assay on HEK293 cells; type: cell-based, human; details: for IC50: Homo sapiens, HEK293, 24 h exposure, 12.5–100 μM; for cytotoxic effects on healthy HEK293 cells (in words): 24 h, up to 100 μM
# Description: The HEK293 was used for cell culture studies and obtained from the American Type Culture Collection (ATCC). Cells were cultured in RPMI-1640 cell medium supplemented with 10% fetal calf serum (FBS) and 1% penicillin/streptomycin. Cells were seeded 6 × 10^5/mL density into 96 well cell culture plates and incubated in a CO2 incubator at 37 °C. The cells were exposed to different chemical concentrations (100, 50, 25 and 12,5 μM) for 24 h after reaching a confluency of 80%.
# The MTT assay was used to assess the cell viability. The MTT assay included putting the cells in an MTT solution (at 1 mg/mL concentration) and incubating them for 1 h at 37 °C. The absorbance was measured at a wavelength of 570 nm using an Epoch microplate spectrophotometer.
# [3] = tested on: α-glucosidase; experiment: α-glucosidase inhibitory activity (p-nitrophenyl-α-D-glucopyranoside method); type: biochemical; remark: listed apart in the source
# [4] = target: T1, α-amylase (Sus scrofa, UniProt P00690); experiment: α-amylase inhibitory activity (spectroscopic starch/Lugol method); type: biochemical
# T1 sequence (P00690 16-511): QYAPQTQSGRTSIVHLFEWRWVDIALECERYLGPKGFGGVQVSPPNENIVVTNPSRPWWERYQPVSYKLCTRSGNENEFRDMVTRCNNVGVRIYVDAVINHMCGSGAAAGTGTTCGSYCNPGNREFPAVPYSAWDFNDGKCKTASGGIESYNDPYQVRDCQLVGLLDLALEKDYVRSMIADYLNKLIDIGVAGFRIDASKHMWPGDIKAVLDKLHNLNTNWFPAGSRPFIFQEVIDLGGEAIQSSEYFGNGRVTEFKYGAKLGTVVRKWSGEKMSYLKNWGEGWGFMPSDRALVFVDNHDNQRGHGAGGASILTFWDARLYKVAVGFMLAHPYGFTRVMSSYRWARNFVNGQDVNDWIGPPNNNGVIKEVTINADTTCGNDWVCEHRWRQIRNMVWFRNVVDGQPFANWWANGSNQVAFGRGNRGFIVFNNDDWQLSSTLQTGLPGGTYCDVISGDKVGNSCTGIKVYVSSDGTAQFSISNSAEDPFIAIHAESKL
# [5] = mean ± SEM of three parallel measurements, read-out: antidiabetic inhibition activity IC50, α-glucosidase
# [6] = no unit in Table 5, same values as Table 2 (there μM), read-out: IC50 value (α-glucosidase), as repeated in docking Table 5
SMILES,"IC50 [1, 5] [µM]","IC50 [1, 6] [µM]",IC50 [2] [µM],"type of inhibition of α-glucosidase (enzyme kinetic study, Lineweaver–Burk) [3]",cytotoxic effects on healthy HEK293 cells (in words) [2],"type of inhibition of α-amylase (enzyme kinetic study, Lineweaver–Burk) [4]"
"CC(=NNC(=O)c1ccc(Br)cc1)c1ccc(S(=O)(=O)NC(=O)NC2CCCCC2)cc1 [compound 5, N-(Cyclohexylcarbamoyl)-4-(1-(2-(4-bromobenzoyl)-hydrazinylidene)-ethyl)-benzenesulfonamide]",77.36 ± 0.31,77.36 ± 0.31,> 100,–,–,–
"C/C(=N\NC(=O)c1cccc2ccccc12)c1ccc(S(=O)(=O)NC(=O)NC2CCCCC2)cc1 [compound 11, 4-(1-(2-(1-Naphthalene)-hydrazinylidene)-ethyl)-N-(cyclocarbamoyl)-benzenesulfonamide]",57.1 ± 0.78,57.1 ± 0.78,> 100,–,–,–
"COc1ccc(C(=O)N/N=C(\C)c2ccc(S(=O)(=O)NC(=O)NC3CCCCC3)cc2)cc1 [compound 8, N-(Cyclohexylcarbamoyl)-4-(1-(2-(4-methoxy)-hydrazinilidene)-ethyl)-benzenesulfonamide]",38.1 ± 0.8,38.1 ± 0.8,–,uncompetitive,not causing any damage to healthy cells; also recorded: no negative impact on healthy cells,uncompetitive
"CC(=NNC(=O)c1ccc(C)cc1)c1ccc(S(=O)(=O)NC(=O)NC2CCCCC2)cc1 [compound 7, N-(Cyclohexylcarbamoyl)-4-(1-(2-(4-methylbenzoyl)-hydrazinylidene)-ethyl)-benzenesulfonamide]",46.14 ± 0.33,46.14 ± 0.33,61,–,–,–
"CC(=NNC(=O)c1ccc(Cl)cc1)c1ccc(S(=O)(=O)NC(=O)NC2CCCCC2)cc1 [compound 14, 4-(1-(2-(4-Chlorobenzoyl)-hydrazinylidene)-ethyl)-N-(cyclohexylcarbamoyl)-benzenesulfonamide]",52.25 ± 0.44,52.25 ± 0.44,–,–,–,–
"C/C(=N\NC(=O)c1ccccc1)c1ccc(S(=O)(=O)NC(=O)NC2CCCCC2)cc1 [compound 1, 4-(1-(2-Benzoylhydrazinilidene)-ethyl)-N-(cyclohexylcarbamoyl)-benzenesulfonamide]",108 ± 0.69,108 ± 0.69,> 100,–,–,–
"CC(=NNC(=O)c1ccccc1[N+](=O)[O-])c1ccc(S(=O)(=O)NC(=O)NC2CCCCC2)cc1 [compound 13, N-(Cyclohexylcarbamoyl)-4-(1-(2-(2-nitrobenzoyl)-hydrazinylidene)-ethyl)-benzenesulfonamide]",66.38 ± 0.37,66.38 ± 0.37,> 100,–,–,–
"CC(=NNC(=O)c1ccc(I)cc1)c1ccc(S(=O)(=O)NC(=O)NC2CCCCC2)cc1 [compound 4, N-(Cyclohexylcarbamoyl)-4-(1-(2-(4-iodobenzoyl)-hydrazinylidene)-ethyl)-benzenesulfonamide]",84.97 ± 0.46,84.97 ± 0.46,> 100,–,–,–
"CC(=NNC(=O)c1cccc(Cl)c1)c1ccc(S(=O)(=O)NC(=O)NC2CCCCC2)cc1 [compound 2, 4-(1-(2-(3-Chlorobenzoyl)-hydrazinylidene)-ethyl)-N-(cyclohexylcarbamoyl)-benzenesulfonamide]",68.75 ± 0.37,68.75 ± 0.37,> 100,–,–,–
"CC(=NNC(=O)c1cccc([N+](=O)[O-])c1)c1ccc(S(=O)(=O)NC(=O)NC2CCCCC2)cc1 [compound 9, N-(Cyclohexylcarbamoyl)-4-(1-(2-(3-nitrobenzoyl)-hydrazinylidene)-ethyl)-benzenesulfonamide]",61.2 ± 0.69,61.2 ± 0.69,69.2,–,–,–
"CC(=NNC(=O)c1ccc([N+](=O)[O-])cc1)c1ccc(S(=O)(=O)NC(=O)NC2CCCCC2)cc1 [compound 10, N-(Cyclohexylcarbamoyl)-4-(1-(2-(4-nitrobenzoyl)-hydrazinylidene)-ethyl)-benzenesulfonamide]",40.44 ± 0.23,40.44 ± 0.23,> 100,–,not causing any damage to healthy cells; also recorded: no negative impact on healthy cells,–
"C[C@H]1O[C@H](O[C@H]2[C@H](O)[C@@H](O)[C@@H](O[C@H]3[C@H](O)[C@@H](O)C(O)O[C@@H]3CO)O[C@@H]2CO)[C@H](O)[C@@H](O)[C@@H]1N[C@H]1C=C(CO)[C@@H](O)[C@H](O)[C@H]1O (some centres unmarked) [acarbose, reference compound]",–,–,> 100,–,nontoxic; also recorded: no cytotoxic effects,–
"CC(=NNC(=O)c1ccc(F)cc1)c1ccc(S(=O)(=O)NC(=O)NC2CCCCC2)cc1 [compound 3, N-(Cyclohexylcarbamoyl)-4-(1-(2-(4-fluorobenzoyl)-hydrazinylidene)-ethyl)-benzenesulfonamide]",45.34 ± 0.36,45.34 ± 0.36,> 100,–,not causing any damage to healthy cells; also recorded: no negative impact on healthy cells,–
